Assay results published in patent US20110209228A1, “METHOD OF TREATMENT USING ANTIMICROBIAL COMPOSITION” (priority 2008, published 2011).

How the values were obtained:
E. coli TOP10 = assay: growth inhibition screen by expression of the peptide in host bacteria (pBAD/gIIIA, L-arabinose induction, OD600); type: cell-based; settings: E. coli TOP10, OD600 before and 4 hours after L-arabinose induction
E. coli DH5α = assay: microbroth dilution method, peptide and antibiotic combination; type: cell-based
Experimental: To determine whether or not antimicrobial peptides as described herein act in a synergistic manner with antibiotic compounds, a microbroth dilution method was performed against E. coli DH5α performed according to the guidelines of the National Committee for Clinical Laboratory Standards.

[1] = antibiotic alone (—), E. coli DH5α
[2] = in combination with SEQ ID NO: 7, E. coli DH5α
[3] = in combination with SEQ ID NO: 8, E. coli DH5α

Molecule	antimicrobial activity: inhibiting bacterial growth and/or killing bacteria on expression (in words) (E. coli TOP10)	further results
5: antimicrobial peptide produced by mutagenesis based on SEQ ID NO: 7 and/or 8 (chain 1 SSRSAAGTIWEFEAF; chain 2 MVKRGLGKNLKRRATKIGNGIKNTLRNFNVVFPIPRPG; Consensus sequence of antimicrobial peptide; Antimicrobial peptide 5) [compound 5]	having antimicrobial activity	–
10: antimicrobial peptide produced by mutagenesis based on SEQ ID NO: 7 and/or 8 (MVKRGFGKRLRKRPKKFRNSIKKRLKNFNVVFPVPRPG; antimicrobial peptide A12) [compound 10]	having antimicrobial activity	–
13: antimicrobial peptide produced by mutagenesis based on SEQ ID NO: 7 and/or 8 (MVKRGFWKSLKRKLKKFGMILGID; Antimicrobial peptide 13) [compound 13]	having antimicrobial activity	–
20: antimicrobial peptide produced by mutagenesis based on SEQ ID NO: 7 and/or 8 (MVKRGFGESLRRRVTKLRDDIKKH; Antimicrobial peptide 20) [compound 20]	having antimicrobial activity	–
28: antimicrobial peptide produced by mutagenesis based on SEQ ID NO: 7 and/or 8 (chain 1 MVLGGFSRCRWLEEKLRDFMKNLVVRIAG; chain 2 MVKRGLGEKLRRRPKKFGIVLGIH; Antimicrobial peptide F7; Antimicrobial peptide 28) [compound 28]	having antimicrobial activity	–
CC1(C)S[C@@H]2[C@H](NC(=O)[C@H](N)c3ccccc3)C(=O)N2[C@H]1C(=O)O [Ampicillin]	–	MIC of antibiotic (E. coli DH5α; [1]): 2 µg/mL; MIC of antibiotic (E. coli DH5α; [2]): 2 µg/mL; MIC of antibiotic (E. coli DH5α; [3]): 4 µg/mL
O=C(N[C@H](CO)[C@H](O)c1ccc([N+](=O)[O-])cc1)C(Cl)Cl [Chloramphenicol]	–	MIC of antibiotic (E. coli DH5α; [1]): 4 µg/mL; MIC of antibiotic (E. coli DH5α; [2]): 1 µg/mL; MIC of antibiotic (E. coli DH5α; [3]): 2 µg/mL
CN(C)[C@@H]1C(O)=C(C(N)=O)C(=O)[C@@]2(O)C(O)=C3C(=O)c4c(O)cccc4[C@@](C)(O)[C@H]3C[C@@H]12 [Tetracycline]	–	MIC of antibiotic (E. coli DH5α; [1]): 2 µg/mL; MIC of antibiotic (E. coli DH5α; [2]): 0.25 µg/mL; MIC of antibiotic (E. coli DH5α; [3]): 0.5 µg/mL
A4: antimicrobial peptide produced by mutagenesis based on SEQ ID NO: 7 and/or 8 (MVKRGFGKNLRRRPTKFRNSIRNRLKNFNIEFPVPRQG; Antimicrobial peptide A4)	having antimicrobial activity	–
A5: antimicrobial peptide produced by mutagenesis based on SEQ ID NO: 7 and/or 8 (MVKRGFWKKLKRKAKKFRNSIRKTLKNFNIIIPVPLPG; Antimicrobial peptide A5)	having antimicrobial activity	–
A6: antimicrobial peptide produced by mutagenesis based on SEQ ID NO: 7 and/or 8 (MVKRGLGKKLKKKPKKFRNSIKKRLKNFNIEIPIPRQG; Antimicrobial peptide A6)	having antimicrobial activity	–
A10: antimicrobial peptide produced by mutagenesis based on SEQ ID NO: 7 and/or 8 (MVKRGFGKKLKKKAKKFRNSIRKRLKNFNVKIPVPLPG; Antimicrobial peptide A10)	having antimicrobial activity	–
A11: antimicrobial peptide produced by mutagenesis based on SEQ ID NO: 7 and/or 8 (MVKRGFGKKLRKRATKFRNSIRKRLKNFNIIFPVPRQG; Antimicrobial peptide A11)	having antimicrobial activity	–
A12: antimicrobial peptide produced by mutagenesis based on SEQ ID NO: 7 and/or 8 (MVKRGFGKRLRKRPKKFRNSIKKRLKNFNVVFPVPRPG; antimicrobial peptide A12)	having antimicrobial activity	–
B1: peptide by mutagenesis based on a consensus sequence for antimicrobial C-terminal fragments of cathelicidin proteins (MVLGDLLRRVGGKFEEFFGKIRETIRTIRICSHLLLRGSSRSAAGTIWEFEAF; Antimicrobial peptide B1)	having antimicrobial activity	–
E3: peptide by mutagenesis based on a consensus sequence for antimicrobial C-terminal fragments of cathelicidin proteins (MVLGGCLRKGGGRLVGMFGRFRATLKNLLDMLGRRIEG; Antimicrobial peptide E3)	having antimicrobial activity	–
F4: peptide by mutagenesis based on a consensus sequence for antimicrobial C-terminal fragments of cathelicidin proteins (MVLGGRSGKVRERFRRIFERYEAKIRTFMEILAAPSQD; Antimicrobial peptide F4)	having antimicrobial activity	–
F6: peptide by mutagenesis based on a consensus sequence for antimicrobial C-terminal fragments of cathelicidin proteins (MVLRGFLKRFGGKILRNRGRDGATLKDFLKMIATRIPH; Antimicrobial peptide F6)	having antimicrobial activity	–
F7: peptide by mutagenesis based on a consensus sequence for antimicrobial C-terminal fragments of cathelicidin proteins (MVLGGFSRCRWLEEKLRDFMKNLVVRIAG; Antimicrobial peptide F7)	having antimicrobial activity	–
F12: peptide by mutagenesis based on a consensus sequence for antimicrobial C-terminal fragments of cathelicidin proteins (MVIGDRFKKFRERLVELRGRNGARLRPLMNIMGGRSAG; Antimicrobial peptide F12)	having antimicrobial activity	–
G9: peptide by mutagenesis based on a consensus sequence for antimicrobial C-terminal fragments of cathelicidin proteins (MVLGGFLRNVRWEIWKKGLSLFCQISYFVVRSSSRSAAGTIWEFEAF; Antimicrobial peptide G9)	having antimicrobial activity	–
G10: peptide by mutagenesis based on a consensus sequence for antimicrobial C-terminal fragments of cathelicidin proteins (MVIRGLLKRGKGRILGLLGRNGKRLRAIMDMFRRRSQQ; Antimicrobial peptide G10)	having antimicrobial activity	–
H6: peptide by mutagenesis based on a consensus sequence for antimicrobial C-terminal fragments of cathelicidin proteins (MVIGDCLRRVRGSLENTVRDLNQGLGILRLRW; Antimicrobial peptide H6)	having antimicrobial activity	–
27: antimicrobial peptide produced by mutagenesis based on SEQ ID NO: 7 and/or 8 (Antimicrobial peptide F6; Antimicrobial peptide 27) chain 1: MVLRGFLKRFGGKILRNRGRDGATLKDFLKMIATRIPH chain 2: MVKRGFGKRLRRKATKLGMILRRH	having antimicrobial activity	–
B6: peptide by mutagenesis based on a consensus sequence for antimicrobial C-terminal fragments of cathelicidin proteins (Antimicrobial peptide B6) MVGIVSGEFRGSFEKCVGGIDKSLGILRLSWDLVLRGILRLSWDLVLRGSSRSAAGTIWEFEAF	having antimicrobial activity	–
